Results from patent US10850274B2, “Microfluidic assisted perfusion devices” (The Regents of the University of California, priority 2015, dated 2020).

Legend:
[1] = test system: MCF7 spheroids; assay: Change in MCF7 spheroid size after Doxorubicin treatment in tumor-on-a-chip device; assay type: cell-based; conditions: for decrease in spheroid area: 3 days (D8 area normalized to D5)
Protocol: HUVECs and MCF7 spheroids were encapsulated within GelMA hydrogels. The MCF spheroids were passed through a cell strainer having 100 μm pore size (Corning) to eliminate single cells and small spheroids. Around 50 spheroids with a diameter of ˜200 μm were dispersed in 5 mL of PBS containing 2 million HUVEC cells. The mixture was centrifuged for 3 minutes at 800 rpm. The supernatant was aspirated and 100 μL of 10% GelMA solution was added to the cell pellet. The cells were re-suspended gently using a pipette before the addition of 0.01% ascorbic acid (antioxidant) and 2 μM LAP (photoinitiator) to the solution. This solution was again mixed gently, drawn into a syringe, and injected into the microfluidic device (FIG. 8, step G).
This device was placed onto a transparency film photomask containing an ellipse pattern and mounted onto a microscope stage (FIG. 8, steps H-I). Using the stage controller of the microscope, the position of the fluidic device was moved to locate individual MCF7 spheroids surrounded by HUVECs under bright field illumination. Each location was exposed to UV light with an excitation and emission wavelengths of approximately 358 and 463 nm, respectively, for 18 seconds. Several locations were photopolymerized before flushing the device with PBS containing 4% Penicillin/Streptomycin. Mixed Media (MM) containing 50% GM and 50% HM was subsequently injected into the device and the GelMA structures containing MCF7 spheroids and HUVECs were cultured at 37° C. and 10% CO2.
Brightfield images of the GelMA hydrogels containing the spheroids and HUVECs were recorded as a function of culture time (1-5 days) to examine their growth post-encapsulation. The area of the spheroid was quantified by tracing the boundary of the spheroid using the free-hand selection tool on ImageJ. […]
The potential of the device as a drug screening platform was assessed by analyzing the effects of Doxorubicin on HUVEC barrier and the tumor spheroids. […] To quantify the effects of Doxorubicin, the changes in spheroid size was analyzed before and after treatment with varying concentrations of the drug.

[2] = test system: HUVECs; assay: Effect of Doxorubicin on HUVEC endothelial barrier around GelMA structures
Protocol: HUVECs and MCF7 spheroids were encapsulated within GelMA hydrogels.
Doxorubicin (Cat. No. D1515, Sigma-Aldrich) was weighed and dissolved in DMSO to achieve a concentration of 100 mg/mL. This solution was distributed into small aliquots and stored in −20° C. The stock solution was thawed and diluted to 100 μg/mL in pre-warmed MM (˜37° C.) and sterilized using a DMSO-resistant syringe filter (Pall Corporations). This 100 μg/mL solution was further diluted in MM to acquire doxorubicin concentrations of 1 and 10 μg/mL used herein.
The potential of the device as a drug screening platform was assessed by analyzing the effects of Doxorubicin on HUVEC barrier and the tumor spheroids. Cell laden GelMA structures, cultured for 5 days, were exposed to different concentrations of Doxorubicin (1, 10, and 100 μg/mL) for 3 days.

[3] = test system: neonatal mouse cardiomyocytes
Protocol: Isolated primary neonatal cardiomyocytes were mixed with 8.5% wt/vol GelMa solution containing 0.01% wt/vol of ascorbic acid and 2 mM lithium phenyl-2,4,6-trimethylbenoylphosphinate (LAP). This solution was injected into the fluidics chamber (see FIG. 3D) and a dark transparency mask containing the clear ellipse patterns was placed under the circular chamber of the device. The GelMa solution was photo-polymerized using a UV light source with an excitation wavelength of 365±40 nm (see FIG. 3E). The regions of the hydrogel precursor solution exposed to UV light polymerized rapidly, thereby forming the microtissues with cells encapsulated within (see FIG. 3E). The unreacted hydrogel precursor solution was removed from the fluidics chamber by injecting PBS in excess (see FIG. 3F). Thus, the 3D device with patterned cardiac-microtissues between hydrogels was created (see FIG. 3G). The device was then perfused with cardiomyocyte growth media and incubated at 37° C. and 10% CO2 culture conditions. […]
To quantify the forces generated by the cardiomyocytes, the propagation of forces originating from the GelMA structures were exploited to PAm hydrogels. […] In addition, a measured value of 8.5 kPa was used for the elastic modulus of the PAm hydrogel and 0.45 for Poisson's ratio.
By treating the PAm hydrogel as a 3 dimensional block tethered at the bottom in mechanical equilibrium, a finite element (FE) approach was used to solve a series of electrostatics equations. […] To obtain the input for the boundary condition at the top surface of the gel, the displacement of the hydrogel was quantified by tracking the fluorescent particles embedded within the network using particle image velocimetry (PIV). […]
Using this approach, fluorescent images were obtained of the green beads embedded within PAm at a frequency of 9 frames per second in order to capture the contraction profile of the cardiomyocytes at 20× magnification. […] Using the FE approach, the traction stress field caused by the cellular forces was calculated.

presence of endothelial barrier ([2]; at and above 10 μg/mL of Doxorubicin, D8) | endothelial barrier ([2]; high doses of Doxorubicin (>10 μg/mL)) | Structure (SMILES) | spheroid growth less than those cultured in the absence of the drug ([1]; 1 μg/mL Doxorubicin, 3 days, growth still observed) [%] | decrease in spheroid area ([1]; 10 μg/mL Doxorubicin) [%] | decrease in spheroid area ([1]; 100 μg/mL Doxorubicin) [%] | endothelial barrier (cytotoxicity to HUVECs) ([2]; upon exposure to Doxorubicin, 3 days) | magnitude of contraction ([3]; addition of epinephrine (0.1 μg/mL)) | ratio of residual stress in the presence of epinephrine to absence of epinephrine ([3]; multiple microtissues, cultured 7 days, value <1 = decrease, epinephrine 0.1 μg/mL) | ratio of force amplitude in the presence of epinephrine to absence of epinephrine ([3]; multiple microtissues, cultured 7 days, value >1 = increase, epinephrine 0.1 μg/mL)
lack thereof | loss of the endothelial barrier | COc1cccc2c1C(=O)c1c(O)c3c(c(O)c1C2=O)C[C@@](O)(C(=O)CO)C[C@@H]3O[C@H]1C[C@H](N)[C@H](O)[C@H](C)O1 [Doxorubicin] | ~20 | ~7 | ~15 | disappeared |  |  | 
 |  | CNC[C@H](O)c1ccc(O)c(O)c1 [epinephrine] |  |  |  |  | increased | ~0.9 | ~1.4
